Measured values published in US20050107438A1, “Pharmaceutical composition comprising 3-[(2-{[4-(Hexyloxycarbonylaminoiminomethyl) phenylamino]-methyl}-1-methyl-1H-benzimidazol-5-carbonyl)-pyridin-2-yl-amino]-propionic acid ethyl ester or a salt therefore” (Boehringer Ingelheim International GmbH, priority 2003, published 2005).

Assay: Solubility of the compound in water as a function of pH
Type: physicochemical
From the text: Therefore, pantoprazole which serves to raise the pH of the stomach was given to the test subjects in one branch of treatment in the clinical trials.

solubility in water (low pH values): dissolves relatively easily | solubility in water (pH levels above 5, definition of the European Pharmacopoeia): virtually insoluble
SMILES: CCCCCCOC(=O)NC(=N)c1ccc(NCc2nc3cc(C(=O)N(CCC(=O)OCC)c4ccccn4)ccc3n2C)cc1 [compound of formula (I), ethyl 3-[(2-{[4-(hexyloxycarbonylaminoiminomethyl)phenylamino]methyl}-1-methyl-1H-benzimidazole-5-carbonyl)pyridin-2-ylamino]propionate]
